Measurements taken from US7935530B2, “Polyamides with tail structures capable of binding DNA” (California Institute of Technology, priority 2006, dated 2011).

What was measured:
[1] = system: 5′-ATACGT-3′ sequence within the HRE of the VEGF promoter; details: values quoted from earlier publications (refs 16, 20); cited from earlier work
[2] = system: 5′-AGACA-3′ site 16 basepairs 5′ to the FLT1 HRE; test: Quantitative DNase I footprint titration on pCSJ-FLT1, site 5′ to the FLT1 HRE; format: binding
Procedure: (§1) Quantitative DNase I footprint titration experiments were used to measure the binding affinities of polyamides 11.1, 11.2, 11.3, and echinomycin on 5′ ^32P-labeled fragments of pGL2-VEGF-Luc and pCSJ-FLT1 containing promoter sequences containing the HREs of VEGF and FLT1, respectively. Quantitative DNase I footprint titration experiments were conducted as reported previously (56).

[3] = system: two 5′-WGWCW-3′ sites approximately 35 basepairs 3′ of the HRE; test: Quantitative DNase I footprint titration on pGL2-VEGF-Luc, sites 3′ of the HRE; format: binding
Procedure: as §1

| SMILES | Ka at the VEGF HRE, previously found [1] | Ka at a 5′-AGACA-3′ site 16 basepairs 5′ to the FLT1 HRE [2] | Ka approximately 35 basepairs 3′ of the HRE, most likely two 5′-WGWCW-3′ sites [3] |
| --- | --- | --- | --- |
| CN(CCCNC(=O)c1cccc(C(=O)O)c1)CCCNC(=O)c1cc(NC(=O)c2cc(NC(=O)c3nc(NC(=O)c4cc(NC(=O)[C@H](N)CCNC(=O)c5nc(NC(=O)c6cc(NC(=O)c7cc(NC(=O)c8sccc8Cl)cn7C)cn6C)cn5C)cn4C)cn3C)cn2C)cn1C [Polyamide 11] | 2.6 (±0.4)×10^10 M^−1 |  |  |
| CN(CCCNC(=O)c1cccc(C(=O)O)c1)CCCNC(=O)c1cc(NC(=O)c2cc(NC(=O)c3cc(NC(=O)c4nc(NC(=O)[C@H](N)CCNC(=O)c5cc(NC(=O)c6cc(NC(=O)c7nc(NC(=O)c8nccn8C)cn7C)cn6C)cn5C)cn4C)cn3C)cn2C)cn1C [Polyamide 23] |  | 2.7 (±0.4)×10^9 M^−1 | 7.6 (±1.0)×10^8 M^−1 |
